Experimental data published in US20130252930A1 (BIOMARIN PHARMACEUTICAL INC., priority 2010, published 2013).

molecular target: T1, CYP17 (human testicular microsome) (Homo sapiens, UniProt P05093); assay: CYP17 enzymatic assay (% inhibition at 1 nM) (Biological Example 12); format: biochemical; conditions: compound at 1 nM, read-out: Biological Example No. 12: CYP17 enzymatic assay % inhibition at 1 nM
T1 construct: using microsomal fraction from human testis (Celsis Cat #S00110) as the enzyme source; tissue Celsis S00110; host or cells: human testis microsomal fraction
T1 sequence (P05093 1-508): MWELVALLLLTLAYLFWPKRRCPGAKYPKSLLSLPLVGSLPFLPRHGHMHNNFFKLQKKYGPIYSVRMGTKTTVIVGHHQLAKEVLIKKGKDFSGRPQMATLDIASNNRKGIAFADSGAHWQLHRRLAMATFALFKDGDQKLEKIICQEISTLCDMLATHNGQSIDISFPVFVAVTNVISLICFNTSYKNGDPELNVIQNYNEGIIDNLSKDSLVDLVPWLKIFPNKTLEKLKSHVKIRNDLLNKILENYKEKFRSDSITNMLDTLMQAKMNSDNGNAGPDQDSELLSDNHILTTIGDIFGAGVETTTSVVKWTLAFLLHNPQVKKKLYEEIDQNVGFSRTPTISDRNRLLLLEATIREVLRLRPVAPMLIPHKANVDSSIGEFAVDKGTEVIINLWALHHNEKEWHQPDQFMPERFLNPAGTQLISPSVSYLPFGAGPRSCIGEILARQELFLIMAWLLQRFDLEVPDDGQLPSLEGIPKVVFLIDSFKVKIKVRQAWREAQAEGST

SMILES | inhibition at 0.001 µM [%]
CC1C[C@@]2(C)C(CC[C@@H]3[C@@H]2CC[C@]2(C)C(c4cccnc4)=CC[C@@H]32)C(C)C1=O (stereo partly drawn) [Compound 415, (10R,13S)-2,4,10,13-tetramethyl-17-(pyridin-3-yl)-4,5,6,7,8,9,10,11,12,13,14,15-dodecahydro-1H-cyclopenta[a]phenanthren-3(2H)-one] | < 10
C[C@]12CCC3(CCC(=O)O3)CC1CCC1C2CC[C@]2(C)C(c3cccnc3)=CCC12 (stereo partly drawn) [Compound 477, (10S,13S)-10,13-dimethyl-17-(pyridin-3-yl)-1,2,4,5,6,7,8,9,10,11,12,13,14,15-tetradecahydro-3′H-spiro[cyclopenta[a]phenanthrene-3,2′-furan]-5′(4′H)-one] | < 10
C[C@]12CC[C@H](O)CC1=CCC1C2CC[C@]2(C)C(c3cncc(NS(C)(=O)=O)c3)=CCC12 (stereo partly drawn) [Compound 284, N-(5-((3S,10R,13S)-3-hydroxy-10,13-dimethyl-2,3,4,7,8,9,10,11,12,13,14,15-dodecahydro-1H-cyclopenta[a]phenanthren-17-yl)pyridin-3-yl)methanesulfonamide] | < 10
C[C@]12CC[C@H](O)CC1=CCC1C2CC[C@]2(C)C(c3cncc(NS(=O)(=O)C(F)(F)F)c3)=CCC12 (stereo partly drawn) [Compound 282, 1,1,1-trifluoro-N-(5-((3S,10R,13S)-3-hydroxy-10,13-dimethyl-2,3,4,7,8,9,10,11,12,13,14,15-dodecahydro-1H-cyclopenta[a]phenanthren-17-yl)pyridin-3-yl)methanesulfonamide] | < 10
C[C@H]1C2CCC3C(CC[C@]4(C)C(c5cncc(C(F)F)c5)=CCC34)[C@@]2(C)CC[C@H]1O (stereo partly drawn) [Compound 308, (3R,4S,10R,13S)-17-(5-(difluoromethyl)pyridin-3-yl)-4,10,13-trimethyl-2,3,4,5,6,7,8,9,10,11,12,13,14,15-tetradecahydro-1H-cyclopenta[a]phenanthren-3-ol] | < 10
C[C@]12CC[C@H]3[C@@H](CC=C4C[C@@H](O)CC[C@@]43C)C1=CC=C2c1cncc(Cl)c1 [Compound 273, (3S,10R,13S)-17-(5-chloropyridin-3-yl)-10,13-dimethyl-2,3,4,7,8,9,10,11,12,13-decahydro-1H-cyclopenta[a]phenanthren-3-ol] | 10 to 50

same assay, conditions: compound at 1 nM, read-out: CYP17 enzymatic assay % inhibition at 1 nM (Biological Example No. 12)

SMILES | inhibition at 0.001 µM [%]
C[C@]12CC[C@H](O)CC1CCC1C2CC[C@]2(C)C(c3cccnc3)CCC12 (stereo partly drawn) [Compound 473, (3S,10S,13S)-10,13-dimethyl-17-(pyridin-3-yl)hexadecahydro-1H-cyclopenta[a]phenanthren-3-ol] | < 10
CCc1ccncc1C1=CC[C@H]2[C@@H]3CC[C@H]4CC(=O)NCC[C@]4(C)[C@H]3CC[C@]12C [Compound 469, (5aS,5bS,7aS,10aS,10bR,12aS)-8-(4-ethylpyridin-3-yl)-5a,7a-dimethyl-3,4,5,5a,5b,6,7,7a,10,10a,10b,11,12,12a-tetradecahydrocyclopenta[5,6]naphtho[1,2-d]azepin-2(1H)-one] | 10 to 50
CC1(C)C(=O)CC[C@@]2(C)C1=CC[C@@H]1[C@@H]2CC[C@]2(C)C(c3cccnc3)=CC[C@@H]12 [Compound 293, (10R,13S)-4,4,10,13-tetramethyl-17-(pyridin-3-yl)-4,7,8,9,10,11,12,13,14,15-decahydro-1H-cyclopenta[a]phenanthren-3(2H)-one] | < 10
Cc1ccccc1C(=O)O[C@H]1CC[C@@]2(C)C(=CCC3C4=CC=C(c5cccnc5)[C@@]4(C)CCC32)C1 (stereo partly drawn) [Compound 195, (3S,10R,13S)-10,13-dimethyl-17-(pyridin-3-yl)-2,3,4,7,8,9,10,11,12,13-decahydro-1H-cyclopenta[a]phenanthren-3-yl 2-methylbenzoate] | 10 to 50
C[C@]12CC[C@@H](NC(=O)c3nccs3)CC1=CC[C@@H]1[C@@H]2CC[C@]2(C)C(c3cccnc3)=CC[C@@H]12 [Compound 229, N-((3R,10R,13S)-10,13-dimethyl-17-(pyridin-3-yl)-2,3,4,7,8,9,10,11,12,13,14,15-dodecahydro-1H-cyclopenta[a]phenanthren-3-yl)thiazole-2-carboxamide] | 10 to 50
CCNC(=O)NC1CC[C@@]2(C)C(=CC[C@@H]3[C@@H]2CC[C@]2(C)C(c4cncc(OC)c4)=CC[C@@H]32)C1 (stereo partly drawn) [Compound 234, 1-ethyl-3-((10R,13S)-17-(5-methoxypyridin-3-yl)-10,13-dimethyl-2,3,4,7,8,9,10,11,12,13,14,15-dodecahydro-1H-cyclopenta[a]phenanthren-3-yl)urea] | 10 to 50
C[C@]12CC[C@@H](NC(=O)C(F)(F)F)CC1CCC1C2CC[C@]2(C)C(c3cccnc3)=CCC12 (stereo partly drawn) [Compound 217, N-((3R,10S,13S)-10,13-dimethyl-17-(pyridin-3-yl)-2,3,4,5,6,7,8,9,10,11,12,13,14,15-tetradecahydro-1H-cyclopenta[a]phenanthren-3-yl)-2,2,2-trifluoroacetamide] | 10 to 50

same assay, conditions: test compound at 1 nM, read-out: CYP17 enzymatic assay percent inhibition at 1 nM (Biological Example No. 12)

SMILES | inhibition at 0.001 µM [%]
CCc1ccncc1C1=CC=C2C3CCC4C[C@@H](OC(C)=O)CC[C@]4(C)C3CC[C@]12C (stereo partly drawn) [Compound 487, (3S,10S,13S)-17-(4-ethylpyridin-3-yl)-10,13-dimethyl-2,3,4,5,6,7,8,9,10,11,12,13-dodecahydro-1H-cyclopenta[a]phenanthren-3-yl acetate] | 10 to 50
Cc1ccncc1C1=CC[C@H]2[C@@H]3CC[C@H]4CNC(=O)CC[C@]4(C)[C@H]3CC[C@]12C [Compound 484, (5aR,5bS,7aS,10aS,10bR,12aR)-5a,7a-dimethyl-8-(4-methylpyridin-3-yl)-1,2,5,5a,5b,6,7,7a,10,10a,10b,11,12,12a-tetradecahydrocyclopenta[5,6]naphtho[2,1-c]azepin-3(4H)-one] | 10 to 50
Cc1ccncc1C1=CC=C2C3CCC4C[C@@H](O)CC[C@]4(C)C3CC[C@]12C (stereo partly drawn) [Compound 485, (3S,10S,13S)-10,13-dimethyl-17-(4-methylpyridin-3-yl)-2,3,4,5,6,7,8,9,10,11,12,13-dodecahydro-1H-cyclopenta[a]phenanthren-3-ol] | 10 to 50
CC1(O)CC2CC[C@@H]3[C@H](CC[C@]4(C)C(c5cccnc5)=CC[C@@H]34)[C@@]2(C)C1 (stereo partly drawn) [Compound 400, (3aS,5aS)-2,3a,5a-trimethyl-6-(pyridin-3-yl)-1,2,3,3a,3b,4,5,5a,8,8a,8b,9,10,10a-tetradecahydrodicyclopenta[a,f]naphthalen-2-ol] | 10 to 50
C[C@]1(O)CC[C@@]2(C)C(=CCC3C2CC[C@]2(C)C(c4cncc(F)c4)=CCC32)C1 (stereo partly drawn) [Compound 270, (3S,10R,13S)-17-(5-fluoropyridin-3-yl)-3,10,13-trimethyl-2,3,4,7,8,9,10,11,12,13,14,15-dodecahydro-1H-cyclopenta[a]phenanthren-3-ol] | 10 to 50
Cc1ccncc1C1=CC=C2C3CCC4CC(=O)CC[C@]4(C)C3CC[C@]12C (stereo partly drawn) [Compound 486, (10S,13S)-10,13-dimethyl-17-(4-methylpyridin-3-yl)-4,5,6,7,8,9,10,11,12,13-decahydro-1H-cyclopenta[a]phenanthren-3(2H)-one] | 10 to 50
